This note sets out measurements from ChEMBL document CHEMBL1781984 (J Nat Prod, 2011).

One data set concerns NCI-H460. The data set is described as follows: Anticancer activity against human NCI-H460 cells. The data set is classed as functional.
Another data set concerns KM-20L2. The data set is described as follows: Anticancer activity against human KM20L2 cells. The data set is classed as functional.
The subject of a further data set is DU-145. The experiment in a line: Anticancer activity against human DU145 cells. The format is functional.
The next data set concerns BXPC-3. The experiment in a line: Anticancer activity against human BxPC3 cells. The data set is classed as functional.
The subject of a further data set is MCF7. The experiment in a line: Anticancer activity against human MCF7 cells. The format is functional.
The test system of another data set is SF-268. The experiment in a line: Anticancer activity against human SF268 cells. The data set is classed as functional.
The nature of data set [1]: Aqueous solubility of the compound in distilled water at 23 degC. The format is physicochemical.
The next data set has as its system P388. The experiment in a line: Anticancer activity against mouse P388 cells. The format is functional.

The structures appear in SMILES notation.

As usually defined, the GI50 is the concentration giving 50% growth inhibition. A lower GI50 goes with more potent growth inhibition. One may read the solubility as the concentration that dissolves in the medium under given conditions. Low readings indicate little dissolved substance, high ones much dissolved substance.

As to `CC[C@H](C)[C@@H]([C@@H](CC(=O)N1CCC[C@H]1[C@H](OC)[C@@H](C)C(=O)Nc1ccc2ccccc2n1)OC)N(C)C(=O)[C@@H](NC(=O)[C@H](C(C)C)N(C)C)C(C)C`, the GI50 came out at 22.1 nM in the data set on NCI-H460; 10.6 nM in the data set with KM-20L2; 31.8 nM in the data set on DU-145; 40.1 nM in the data set on BXPC-3; 6.35 nM with MCF7; 40.1 nM in the data set with SF-268.
Turning to `CC[C@H](C)[C@@H]([C@@H](CC(=O)N1CCC[C@H]1[C@H](OC)[C@@H](C)C(=O)Nc1ccc2ncccc2c1)OC)N(C)C(=O)[C@@H](NC(=O)[C@H](C(C)C)N(C)C)C(C)C`, the GI50 is 0.5 nM in the data set with NCI-H460; 0.35 nM with KM-20L2; 0.41 nM in the data set with DU-145; 0.43 nM in the data set on BXPC-3; 0.19 nM in the data set on MCF7; 0.22 nM in the data set on SF-268.
In the case of `C1COCCN1.CC[C@H](C)[C@@H]([C@@H](CC(=O)N1CCC[C@H]1[C@H](OC)[C@@H](C)C(=O)NCCc1ccc(OP(=O)(O)O)cc1)OC)N(C)C(=O)[C@@H](NC(=O)[C@H](C(C)C)N(C)C)C(C)C` [MORPHOLINE AURISTATIN TP], in data set [1], the solubility is greater than 72 mg/mL.
`CC[C@H](C)[C@@H]([C@@H](CC(=O)N1CCC[C@H]1[C@H](OC)[C@@H](C)C(=O)NCCc1ccc(OP(=O)(O)O)cc1)OC)N(C)C(=O)[C@@H](NC(=O)[C@H](C(C)C)N(C)C)C(C)C` [POTASSIUM AURISTATIN TP] yielded a GI50 in the data set with P388 of 8.7 nM.
Regarding `C=C[C@H]1CN2CCC1C[C@H]2[C@H](O)c1ccnc2ccc(OC)cc12.CC[C@H](C)[C@@H]([C@@H](CC(=O)N1CCC[C@H]1[C@H](OC)[C@@H](C)C(=O)NCCc1ccc(OP(=O)(O)O)cc1)OC)N(C)C(=O)[C@@H](NC(=O)[C@H](C(C)C)N(C)C)C(C)C` [Quinine Auristatin TP], in data set [1], the solubility was less than 5 mg/mL.
For the molecule `CC[C@H](C)[C@@H]([C@@H](CC(=O)N1CCC[C@H]1[C@H](OC)[C@@H](C)C(=O)NCCc1ccc(OP(=O)(O)O)cc1)OC)N(C)C(=O)[C@@H](NC(=O)[C@H](C(C)C)N(C)C)C(C)C` [SODIUM AURISTATIN TP], the GI50 in the data set with P388 is less than 1.2 nM; with NCI-H460, 1.05 nM; with KM-20L2, 0.72 nM; with DU-145, 0.64 nM; in the data set on BXPC-3, 54.6 nM; in the data set on MCF7, 0.81 nM. Further, it took 1.48 nM to inhibit growth in the data set on SF-268 by half (GI50).
